Entries after “also recorded” stand apart in the source; their conditions may differ.

The values below come from article PMC5344539, “Nematode neuropeptides as transgenic nematicides” (PLoS Pathogens, 2017).

The test system of test [1] is G. pallida J2s. The experiment in a line: Chemosensory (chemotaxis) assay of uNLP pre-treated J2s towards tomato root exudate. Format: in vivo, Globodera pallida. The note with it: for effect on chemosensation (in words): 100 μM uNLP, 24 h, relative to controls; for CI score: Fig 2A, J2s incubated in 100 μM uNLP for 24 h, tomato cv. Moneymaker root exudate vs water agar plugs, counted after 3 h, mean of 10 replicates of 100 J2s, control 0.4154. As for the experimental part: (§1) Predicted uNLPs from both M. incognita and G. pallida were synthesised by EZBiolab and dissolved into pH adjusted ddH2O to make a 5 mM stock which was aliquoted and stored at -20°C. J2s of both M. incognita and G. pallida were incubated for 24 hours in 200 μl of each peptide in a 24 well plate (SPL Lifesciences, South Korea) at a defined concentration.
(§2) A 60 mm Petri dish was divided into two segments, a positive and a negative side, with a 0.5 cm 'dead zone' either side of the centre point. The petri dish was filled with 15 ml of 0.25% w/v agar which was allowed to solidify. 3 ml of 0.25% w/v agar slurry in spring water (pH 7, agitated with a magnetic stirrer for several hours to give a smooth consistency) was added to the petri dish and spread evenly over the surface. Root diffusate (attractant) and water only (control) 0.25% agar plugs were embedded in the agar slurry, either side of the assay arena. Root diffusate was collected from 10 tomato plants, aged 3–6 weeks in 1 litre pots, by pouring 500 ml of ddH20 through the soil three times. Diffusate from each plant was combined, filter sterilised and stored at 4°C for a maximum of 1 month. Root diffusate agar plugs were made by melting 1.25% agar in ddH20, cooling to 50°C before mixing with 4 parts of root diffusate. The agar was then allowed to solidify at room temperature. 100 uNLP pre-treated M. incognita or G. pallida J2s were added by pipette to the centre of the plate. J2s which moved out of the 'dead zone' after 3 hours were counted and their location (+/-) scored. The distribution of J2s were used to create a chemotaxis index for each plate, which formed one replicate, a total of 10 replicates where completed for each uNLP treatment.

Test [2] has as its system G. pallida J2s. Kind of test: Serotonin-induced stylet thrusting assay. The note with it: for effect on serotonergic-induced stylet thrusting (in words): 100 μM uNLP, 24 h, 2 mM serotonin, relative to controls; for % Thrusting: Fig 2C, J2s incubated in 100 μM uNLP for 24 h, stylet thrusts in 2 mM serotonin, counted 1 min, normalised to control = 100%, mean, at least 30 J2s. The format is in vivo, Globodera pallida. As for the experimental part: as §1
(§3) Stylet thrusting assays where performed by incubating 100 M. incognita or G. pallida J2s for 15 minute in 5 mM or 2 mM serotonin (Sigma Aldrich, USA), respectively. J2s were placed on a glass slide and stylet thrusts were counted for randomly selected J2s, for 1 minute each. Counts for a given cohort of J2s were taken in a maximum interval of 15 minutes. Longer counting intervals, making for longer serotonin incubations, yielded inconsistent results. At least 30 J2s were counted for each neuropeptide treatment.

In test [3] the test system is M. incognita J2s. The experiment in a line: Tomato invasion assay with uNLP pre-treated J2s. The format is in vivo, Meloidogyne incognita. The conditions noted are these: for % Invasion: Fig 1B, 500 J2s incubated in 100 μM uNLP for 24 h, single tomato seedling, 24 h at 23°C, normalised to negative control = 100%, mean; for effect on host invasion (in words): 100 μM uNLP, 24 h, tomato cv. Moneymaker, relative to controls. As for the experimental part: as §1
Tomato seeds were sterilised with 2.5% NaOCl for 15 minutes, washed 5 times in ddH20 and germinated on 0.5% Murashige and Skoog plates at 23°C. […] Invasion assays were performed by mixing 500 pre-treated M. incognita or G. pallida J2s with agar slurry and a single tomato seedling (2 days post germination) in a 6 well plate. Assays were left at 23°C for 24 hours in the case of M. incognita and at 18°C for 24 hours in the case of G. pallida under a 16 hour light and 8 hour darkness cycle. Seedlings were stained using acid fuschin [69] and the number of nematodes within the roots counted. At least five seedlings were used for M. incognita infections assays, with at least 15 seedlings used for G. pallida infections assays (due to increased variation).

Test [4] deals with M. incognita J2s. The experiment in a line: Chemosensory (chemotaxis) assay of uNLP pre-treated J2s towards tomato root exudate. The note with it: for effect on chemosensation (in words): 100 μM uNLP, 24 h, relative to controls; for CI score: Fig 1A, J2s incubated in 100 μM uNLP for 24 h, tomato cv. Moneymaker root exudate vs water agar plugs, counted after 3 h, mean of 10 replicates of 100 J2s, control 0.4426. Format: in vivo, Meloidogyne incognita. As for the experimental part:
as §1, §2

The test system of test [5] is M. incognita J2s. Kind of test: Serotonin-induced stylet thrusting assay. The conditions noted are these: for effect on serotonergic-induced stylet thrusting (in words): 100 μM uNLP, 24 h, 5 mM serotonin, relative to controls; for % Thrusting: Fig 1C, J2s incubated in 100 μM uNLP for 24 h, stylet thrusts in 5 mM serotonin, counted 1 min, normalised to control = 100%, mean, at least 30 J2s. The format is in vivo, Meloidogyne incognita. As for the experimental part:
as §1, §3

Regarding “GGARAFFGDADGPFNSASYWAP [Gp-NLP-21h, predicted unamidated NLP of G. pallida, synthesised]”, in the test on G. pallida J2s [1], the “effect on chemosensation (in words)” value was “inhibit chemosensation” and the CI score was -0.01564. For the same sequence, in the test with G. pallida J2s [2], the “effect on serotonergic-induced stylet thrusting (in words)” value is “modulating stylet thrusting rates” and the “% Thrusting” value is recorded as 116.80%.

Regarding “GGARAFNGAEETLLNVANLA [Gp-NLP-21i, predicted unamidated NLP of G. pallida, synthesised]”, in the test on G. pallida J2s [1], the “effect on chemosensation (in words)” value was “inhibit chemosensation” and the CI score was -0.1733. In the test with G. pallida J2s [2], the “effect on serotonergic-induced stylet thrusting (in words)” value is recorded as “modulating stylet thrusting rates” and the “% Thrusting” value stood at 117.70%.

Consider “SSQFGGENSFARFAFA [Mi-NLP-18e, predicted unamidated NLP of M. incognita, synthesised]”, for which the “% Invasion” value with M. incognita J2s [3] is on record as 46.49%.

For “AFDSFGTPGFTGFD [Mi-NLP-15a, predicted unamidated NLP of M. incognita, synthesised]”, in the test on M. incognita J2s [4], the “effect on chemosensation (in words)” value is listed as “inhibit chemosensation” and the CI score was -0.01067.

Turning to “FAPRQFAFA [Mi-NLP-18a, predicted unamidated NLP of M. incognita, synthesised]”, in the test on M. incognita J2s [4], the “effect on chemosensation (in words)” value is “inhibited” and the CI score is -0.1353. In the test with M. incognita J2s [3], the “effect on host invasion (in words)” value is listed as “inhibited” and the “% Invasion” value is given as 25.88%.

For the sequence “AFDSFAGNGFTGFD [Mi-NLP-15f, predicted unamidated NLP of M. incognita, synthesised]”, in the test with M. incognita J2s [4], the “effect on chemosensation (in words)” value is “inhibit chemosensation” and the CI score was -0.05. Besides, in the test with M. incognita J2s [5], the “effect on serotonergic-induced stylet thrusting (in words)” value is listed as “reduces stylet thrusting rate” and the “% Thrusting” value was found to be 75.18%. The “effect on host invasion (in words)” value with M. incognita J2s [3] is on record as “does not impact on host invasion”.

Regarding “ALDLMEGDGFGGGFD [Mi-NLP-14b, predicted unamidated NLP of M. incognita, synthesised]”, the CI score in the test on M. incognita J2s [4] is -0.1155.

Consider “SSLASGRIGFRPA [Mi-NLP-2, predicted unamidated NLP of M. incognita, synthesised]”, for which the “% Thrusting” value with M. incognita J2s [5] stood at 164.40%.

In the case of “AFDRLDVSPFDFDAMT [Mi-NLP-8a, predicted unamidated NLP of M. incognita, synthesised]”, the CI score with M. incognita J2s [4] came to 0.018. In addition, in the test on M. incognita J2s [5], the “% Thrusting” value stood at 126.10%.

With “SFDSFVGKGFTGMD [Mi-NLP-15c, predicted unamidated NLP of M. incognita, synthesised]”, in the test on M. incognita J2s [4], the “effect on chemosensation (in words)” value was “inhibit chemosensation” and the CI score is -0.359.

For “SFGDYPFGSRTFAFA [Mi-NLP-18c, predicted unamidated NLP of M. incognita, synthesised]”, the “% Thrusting” value in the test on M. incognita J2s [5] is recorded as 175.50%.

Turning to “GGARPFYGFFGGGEGTW [Mi-NLP-9e, predicted unamidated NLP of M. incognita, synthesised]”, the “% Invasion” value in the test on M. incognita J2s [3] is 48.68%.

Regarding “FNDDELSSLPFNFEYFPSLDTH [Mi-NLP-8b, predicted unamidated NLP of M. incognita, synthesised]”, the “% Invasion” value with M. incognita J2s [3] is listed as 61.38%.

For the sequence “GMRNFAFA [Mi-NLP-18b, predicted unamidated NLP of M. incognita, synthesised]”, in the test on M. incognita J2s [4], the “effect on chemosensation (in words)” value is reported as “no negative impact on J2 chemosensory ability”. In addition, in the test with M. incognita J2s [5], the “effect on serotonergic-induced stylet thrusting (in words)” value is given as “agonise serotonergic stylet thrusting” and the “% Thrusting” value was determined as 146.60%. Besides, in the test on M. incognita J2s [3], the “effect on host invasion (in words)” value is given as “reduce host invasion rates” and the “% Invasion” value was determined as 47.81%.

With “AFDLFTGPGFTGMD [Gp-NLP-15h, predicted unamidated NLP of G. pallida, synthesised]”, the CI score in the test on G. pallida J2s [1] is -0.06784.

As to “GGARPFYGGGYMDGTW [Gp-NLP-21f, predicted unamidated NLP of G. pallida, synthesised]”, the CI score with G. pallida J2s [1] was determined as 0.1456.

Regarding “GGARAFAKLEE [Mi-NLP-9c, predicted unamidated NLP of M. incognita, synthesised]”, the “% Thrusting” value in the test with M. incognita J2s [5] was 143.20%.

Take “GGARTFLVGE [Mi-NLP-9b, predicted unamidated NLP of M. incognita, synthesised]”: in the test on M. incognita J2s [4], the “effect on chemosensation (in words)” value is on record as “inhibit chemosensation” and the CI score is recorded as -0.07417.

For “ALDMLEGDDFIGMQ [Mi-NLP-14a, predicted unamidated NLP of M. incognita, synthesised]”, in the test on M. incognita J2s [5], the “effect on serotonergic-induced stylet thrusting (in words)” value was “inhibition; also recorded: reduces stylet thrusting rate” and the “% Thrusting” value amounted to 61.60%. Also, in the test on M. incognita J2s [3], the “effect on host invasion (in words)” value was “does inhibit host invasion” and the “% Invasion” value is given as 44.61%.

On to “ALDILDGDDFTGFS [Gp-NLP-14e, predicted unamidated NLP of G. pallida, synthesised]”, for which, in the test with G. pallida J2s [1], the CI score is on record as -0.0641.

Regarding “SAFDSFVGRGFTGMD [Mi-NLP-15e, predicted unamidated NLP of M. incognita, synthesised]”, in the test on M. incognita J2s [4], the “effect on chemosensation (in words)” value was “inhibit chemosensation” and the CI score is given as -0.01767. In addition, the “% Invasion” value in the test with M. incognita J2s [3] was 38.71%.

For the sequence “AAENFDENNDIN [Mi-NLP-18d, predicted unamidated NLP of M. incognita, synthesised]”, in the test with M. incognita J2s [4], the “effect on chemosensation (in words)” value was “no negative impact on J2 chemosensory ability”. For the same sequence, in the test with M. incognita J2s [5], the “effect on serotonergic-induced stylet thrusting (in words)” value is listed as “agonise serotonergic stylet thrusting” and the “% Thrusting” value turned out to be 147.70%. In the test with M. incognita J2s [3], the “effect on host invasion (in words)” value is listed as “reduce host invasion rates” and the “% Invasion” value is reported as 34.21%.

Consider “ALDILESDDFGGF [Gp-NLP-14a, predicted unamidated NLP of G. pallida, synthesised]”, for which the CI score with G. pallida J2s [1] is -0.3765.

On to “AFDSFTGPGFTGMD [Gp-NLP-15g, predicted unamidated NLP of G. pallida, synthesised]”, for which the CI score in the test on G. pallida J2s [1] is recorded as -0.2208.

Take “ALDMMEGDDFIGL [Mi-NLP-14c, predicted unamidated NLP of M. incognita, synthesised]”: in the test with M. incognita J2s [4], the “effect on chemosensation (in words)” value is listed as “no negative impact on J2 chemosensory ability”. For the same sequence, in the test with M. incognita J2s [5], the “effect on serotonergic-induced stylet thrusting (in words)” value is reported as “excitation; also recorded: agonise serotonergic stylet thrusting” and the “% Thrusting” value was 134.70%. Also, in the test on M. incognita J2s [3], the “effect on host invasion (in words)” value is reported as “reduce host invasion rates” and the “% Invasion” value turned out to be 20.96%.

For the sequence “AGARAFQRPDFDDASYEL [Mi-NLP-9a, predicted unamidated NLP of M. incognita, synthesised]”, the “% Invasion” value in the test with M. incognita J2s [3] is 45.59%.

On to “AFDRLDNSFMLL [Mi-NLP-8d, predicted unamidated NLP of M. incognita, synthesised]”, for which the “% Invasion” value in the test with M. incognita J2s [3] turned out to be 29.31%.

“AGGRLFRMVDLPDGDDFVPEG [Gp-NLP-21e, predicted unamidated NLP of G. pallida, synthesised]”: the CI score in the test with G. pallida J2s [1] is listed as -0.3804.

For the sequence “SFDSLTGPGFTGLDT [Gp-NLP-15a, predicted unamidated NLP of G. pallida, synthesised]”, the CI score in the test with G. pallida J2s [1] is given as -0.1451.
